Laboratory results: patent US9611503B2, “Escherichia coli cell line with thyA knockout and folA knockout” (priority 2011, dated 2017)

Tests used:
[1] = tested on: E. coli thyA folA KO + Pf TM4; assay: microbe, parasite or virus in culture; format: cell-based; conditions: Escherichia coli; host expressing P. falciparum TM4 DHFR-TS; minimal media with ampicillin, 37 degrees Celsius, 6 hours, OD 600 nm
[2] = tested on: E. coli thyA folA KO + Pf K1; assay: microbe, parasite or virus in culture; format: cell-based; conditions: Escherichia coli; host expressing P. falciparum K1 DHFR-TS; minimal media with ampicillin, 37 degrees Celsius, 6 hours, OD 600 nm
[3] = tested on: E. coli thyA folA KO + Pv wt; assay: microbe, parasite or virus in culture; format: cell-based; conditions: Escherichia coli; host expressing P. vivax wildtype DHFR-TS; 6 hours, OD 600 nm
[4] = tested on: E. coli thyA folA KO + Pv mt; assay: microbe, parasite or virus in culture; format: cell-based; conditions: Escherichia coli; host expressing P. vivax sp21 double mutant DHFR-TS; 6 hours, OD 600 nm
[5] = tested on: E. coli thyA folA KO + Pm wt; assay: microbe, parasite or virus in culture; format: cell-based; conditions: Escherichia coli; host expressing P. malariae wildtype DHFR-TS; 6 hours, OD 600 nm
[6] = tested on: E. coli thyA folA KO + Tb wt; assay: microbe, parasite or virus in culture; format: cell-based; conditions: Escherichia coli, 6 h
[7] = tested on: E. coli thyA folA KO + Tg wt; assay: microbe, parasite or virus in culture; format: cell-based; conditions: Escherichia coli; host expressing Toxoplasma gondii wildtype DHFR-TS; 6 hours, OD 600 nm
[8] = tested on: E. coli thyA folA KO + Tg mt; assay: microbe, parasite or virus in culture; format: cell-based; conditions: Escherichia coli; host expressing Toxoplasma gondii double mutant DHFR-TS; 6 hours, OD 600 nm
[9] = tested on: E. coli thyA folA KO + Lm wt; assay: microbe, parasite or virus in culture; format: cell-based; conditions: Escherichia coli; host expressing Leishmania major DHFR-TS; 6 hours, OD 600 nm
[10] = biological target: DHFR-TS from Plasmodium malariae (wildtype) (Plasmodium malariae, UniProt A0A1D3JLL1); assay: In vitro biochemical enzyme inhibition assay, purified DHFR-TS; conditions: purified P. malariae wildtype DHFR-TS
Chain of DHFR-TS from Plasmodium malariae (wildtype) (A0A1D3JLL1 entry or part of it): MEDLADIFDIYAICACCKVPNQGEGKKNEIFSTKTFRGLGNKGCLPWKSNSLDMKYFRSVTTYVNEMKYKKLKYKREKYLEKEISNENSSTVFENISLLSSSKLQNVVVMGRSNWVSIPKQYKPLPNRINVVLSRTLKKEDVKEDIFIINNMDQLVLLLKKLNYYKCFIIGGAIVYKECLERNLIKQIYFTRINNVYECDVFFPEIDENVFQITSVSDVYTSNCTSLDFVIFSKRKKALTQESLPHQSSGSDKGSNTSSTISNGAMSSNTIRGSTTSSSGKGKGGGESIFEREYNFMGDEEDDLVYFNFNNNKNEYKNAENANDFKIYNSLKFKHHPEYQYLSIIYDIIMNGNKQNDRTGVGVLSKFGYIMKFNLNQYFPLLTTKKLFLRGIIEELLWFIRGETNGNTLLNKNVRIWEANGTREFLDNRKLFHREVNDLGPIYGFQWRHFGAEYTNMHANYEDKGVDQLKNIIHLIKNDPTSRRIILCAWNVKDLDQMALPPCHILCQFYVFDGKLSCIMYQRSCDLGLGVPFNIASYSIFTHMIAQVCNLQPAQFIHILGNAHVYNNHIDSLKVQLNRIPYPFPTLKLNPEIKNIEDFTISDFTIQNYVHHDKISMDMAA

Q: `CCc1nc(N)nc(N)c1-c1ccc(Cl)cc1` [Pyrimethamine] was tested. Which IC50 [1] did it give?
A: The IC50 was 0.07 ± 0.01 µM.

Q: And the IC50 [2]?
A: The IC50 was 31.93 ± 0.16 µM.

Q: And the IC50 [3]?
A: The IC50 was 3.08 ± 0.33 µM.

Q: What about the IC50 [4] of the same molecule?
A: Its IC50 is greater than 100 µM.

Q: What about the IC50 [5] of the same molecule?
A: The IC50 was 0.77 ± 0.22 µM.

Q: What about the IC50 [6] of the same molecule?
A: Its IC50 is greater than 100 µM.

Q: And the IC50 [7]?
A: The IC50 was greater than 100 µM.

Q: And the IC50 [8]?
A: Its IC50 is greater than 100 µM.

Q: What about the IC50 [9] of the same molecule?
A: The IC50 was greater than 100 µM.

Q: And the Ki [10]?
A: The Ki was 0.00054 ± 6e-05 µM.
